In paper PMC8224038, “Anti-Leukemic Properties of Aplysinopsin Derivative EE-84 Alone and Combined to BH3 Mimetic A-1210477” (Marine Drugs, 2021):

System: K562 cells
Experiment: Cell cycle analysis (PI, FACS)
Assay type: cell-based, human
Description: Cells were collected and fixed in 70% ethanol. DNA was stained with propidium iodide (PI) solution (1 μg/mL, Sigma-Aldrich, St. Louis, MO, USA) in 1XPBS (Biosesang, Seongnam, Korea) for 30 min at 37 °C, supplemented with RNase A (100 μg/mL, Roche, Basel, Switzerland). Samples were analyzed by flow cytometry using the FACSCalibur^TM system, Becton Dickinson (BD) Biosciences (San Jose, CA, USA). Data were recorded statistically (10,000 events/sample) using the Cell Quest software (BD Biosciences) and analyzed using Flow-Jo 8.8.5 software (Tree Star, Inc., Ashland, OR, USA).

**Q.** `COc1ccc2c(c1)c(C(=O)C(=O)Nc1sc3c(c1C(C)=O)CC(C)CC3)cn2Cc1ccccc1` (stereo not drawn) [EE-84, N-(3-Acetyl-4,5,6,7-Tetrahydro-5-Methylbenzo[b]Thiophen-2-yl)-2-(1-Benzyl-5-Methoxy-1H-Indol-3-yl)-2-Oxoacetamide] was tested. Which “G1 cell cycle phase” value (K562, 48 h, EE-84 10 μM) did it give?
**A.** 59.59 ± 1.12%

**Q.** And the “G2/M cell cycle phase” value (K562, 48 h, EE-84 10 μM)?
**A.** 18.64 ± 0.75%

**Q.** What about the “S cell cycle phase” value (K562, 48 h, EE-84 10 μM) of the same molecule?
**A.** 20.30 ± 1.68%

**Q.** And the “Sub-G1 cell cycle phase” value (K562, 48 h, EE-84 10 μM)?
**A.** 1.48 ± 0.81%

**Q.** What about the “G1 cell cycle phase” value (K562, 48 h, EE-84 30 μM) of the same molecule?
**A.** 61.11 ± 1.58%

**Q.** And the “G2/M cell cycle phase” value (K562, 48 h, EE-84 30 μM)?
**A.** 13.25 ± 0.32%

**Q.** What about the “S cell cycle phase” value (K562, 48 h, EE-84 30 μM) of the same molecule?
**A.** 20.99 ± 0.83%

**Q.** What about the “Sub-G1 cell cycle phase” value (K562, 48 h, EE-84 30 μM) of the same molecule?
**A.** 4.65 ± 2.42%

**Q.** And the “G1 cell cycle phase” value (K562, 48 h, EE-84 50 μM)?
**A.** 58.40 ± 2.81%

**Q.** What about the “G2/M cell cycle phase” value (K562, 48 h, EE-84 50 μM) of the same molecule?
**A.** 12.86 ± 1.46%

**Q.** And the “S cell cycle phase” value (K562, 48 h, EE-84 50 μM)?
**A.** 20.41 ± 1.84%

**Q.** And the “Sub-G1 cell cycle phase” value (K562, 48 h, EE-84 50 μM)?
**A.** 8.34 ± 1.51%

**Q.** And the “G1 cell cycle phase” value (K562, 72 h, EE-84 10 μM)?
**A.** 60.83 ± 2.33%

**Q.** And the “G2/M cell cycle phase” value (K562, 72 h, EE-84 10 μM)?
**A.** 17.57 ± 0.90%

**Q.** What about the “S cell cycle phase” value (K562, 72 h, EE-84 10 μM) of the same molecule?
**A.** 17.52 ± 4.24%

**Q.** And the “Sub-G1 cell cycle phase” value (K562, 72 h, EE-84 10 μM)?
**A.** 4.08 ± 2.80%

**Q.** And the “G1 cell cycle phase” value (K562, 72 h, EE-84 30 μM)?
**A.** 55.09 ± 2.26%

**Q.** What about the “G2/M cell cycle phase” value (K562, 72 h, EE-84 30 μM) of the same molecule?
**A.** 17.03 ± 2.69%

**Q.** And the “S cell cycle phase” value (K562, 72 h, EE-84 30 μM)?
**A.** 21.55 ± 1.64%

**Q.** What about the “Sub-G1 cell cycle phase” value (K562, 72 h, EE-84 30 μM) of the same molecule?
**A.** 6.33 ± 0.74%

**Q.** And the “G1 cell cycle phase” value (K562, 72 h, EE-84 50 μM)?
**A.** 52.03 ± 2.99%

**Q.** And the “G2/M cell cycle phase” value (K562, 72 h, EE-84 50 μM)?
**A.** 15.08 ± 2.89%

**Q.** What about the “S cell cycle phase” value (K562, 72 h, EE-84 50 μM) of the same molecule?
**A.** 19.85 ± 1.33%

**Q.** What about the “Sub-G1 cell cycle phase” value (K562, 72 h, EE-84 50 μM) of the same molecule?
**A.** 13.03 ± 1.19%
